Source: publication PMC7774954, “Interactomic affinity profiling by holdup assay: Acetylation and distal residues impact the PDZome-binding specificity of PTEN phosphatase” (PLoS ONE, 2020)
*1 amine or outer side, *2 acyl side, *3 side chain or, on linkers, in order; H or OH if unused. Where a SMILES comes first, the peptide text is derived from it. The star is where a group is joined. X1 = O=C(CCCC[C@@H]1SC[C@@H]2NC(=O)N[C@@H]21)NCCCOCCOCCOCCCN*; Suc = O=C(CCC(=O)[*:2])[*:1]

How the values were obtained:
GRIP1-4 = experiment: Holdup assay, GRIP1-4; assay type: binding, human
MPDZ-11 = MPDZ-11 (Homo sapiens, UniProt O75970); experiment: Holdup assay, MPDZ-11; assay type: binding
Sequence of MPDZ-11 (O75970 whole entry): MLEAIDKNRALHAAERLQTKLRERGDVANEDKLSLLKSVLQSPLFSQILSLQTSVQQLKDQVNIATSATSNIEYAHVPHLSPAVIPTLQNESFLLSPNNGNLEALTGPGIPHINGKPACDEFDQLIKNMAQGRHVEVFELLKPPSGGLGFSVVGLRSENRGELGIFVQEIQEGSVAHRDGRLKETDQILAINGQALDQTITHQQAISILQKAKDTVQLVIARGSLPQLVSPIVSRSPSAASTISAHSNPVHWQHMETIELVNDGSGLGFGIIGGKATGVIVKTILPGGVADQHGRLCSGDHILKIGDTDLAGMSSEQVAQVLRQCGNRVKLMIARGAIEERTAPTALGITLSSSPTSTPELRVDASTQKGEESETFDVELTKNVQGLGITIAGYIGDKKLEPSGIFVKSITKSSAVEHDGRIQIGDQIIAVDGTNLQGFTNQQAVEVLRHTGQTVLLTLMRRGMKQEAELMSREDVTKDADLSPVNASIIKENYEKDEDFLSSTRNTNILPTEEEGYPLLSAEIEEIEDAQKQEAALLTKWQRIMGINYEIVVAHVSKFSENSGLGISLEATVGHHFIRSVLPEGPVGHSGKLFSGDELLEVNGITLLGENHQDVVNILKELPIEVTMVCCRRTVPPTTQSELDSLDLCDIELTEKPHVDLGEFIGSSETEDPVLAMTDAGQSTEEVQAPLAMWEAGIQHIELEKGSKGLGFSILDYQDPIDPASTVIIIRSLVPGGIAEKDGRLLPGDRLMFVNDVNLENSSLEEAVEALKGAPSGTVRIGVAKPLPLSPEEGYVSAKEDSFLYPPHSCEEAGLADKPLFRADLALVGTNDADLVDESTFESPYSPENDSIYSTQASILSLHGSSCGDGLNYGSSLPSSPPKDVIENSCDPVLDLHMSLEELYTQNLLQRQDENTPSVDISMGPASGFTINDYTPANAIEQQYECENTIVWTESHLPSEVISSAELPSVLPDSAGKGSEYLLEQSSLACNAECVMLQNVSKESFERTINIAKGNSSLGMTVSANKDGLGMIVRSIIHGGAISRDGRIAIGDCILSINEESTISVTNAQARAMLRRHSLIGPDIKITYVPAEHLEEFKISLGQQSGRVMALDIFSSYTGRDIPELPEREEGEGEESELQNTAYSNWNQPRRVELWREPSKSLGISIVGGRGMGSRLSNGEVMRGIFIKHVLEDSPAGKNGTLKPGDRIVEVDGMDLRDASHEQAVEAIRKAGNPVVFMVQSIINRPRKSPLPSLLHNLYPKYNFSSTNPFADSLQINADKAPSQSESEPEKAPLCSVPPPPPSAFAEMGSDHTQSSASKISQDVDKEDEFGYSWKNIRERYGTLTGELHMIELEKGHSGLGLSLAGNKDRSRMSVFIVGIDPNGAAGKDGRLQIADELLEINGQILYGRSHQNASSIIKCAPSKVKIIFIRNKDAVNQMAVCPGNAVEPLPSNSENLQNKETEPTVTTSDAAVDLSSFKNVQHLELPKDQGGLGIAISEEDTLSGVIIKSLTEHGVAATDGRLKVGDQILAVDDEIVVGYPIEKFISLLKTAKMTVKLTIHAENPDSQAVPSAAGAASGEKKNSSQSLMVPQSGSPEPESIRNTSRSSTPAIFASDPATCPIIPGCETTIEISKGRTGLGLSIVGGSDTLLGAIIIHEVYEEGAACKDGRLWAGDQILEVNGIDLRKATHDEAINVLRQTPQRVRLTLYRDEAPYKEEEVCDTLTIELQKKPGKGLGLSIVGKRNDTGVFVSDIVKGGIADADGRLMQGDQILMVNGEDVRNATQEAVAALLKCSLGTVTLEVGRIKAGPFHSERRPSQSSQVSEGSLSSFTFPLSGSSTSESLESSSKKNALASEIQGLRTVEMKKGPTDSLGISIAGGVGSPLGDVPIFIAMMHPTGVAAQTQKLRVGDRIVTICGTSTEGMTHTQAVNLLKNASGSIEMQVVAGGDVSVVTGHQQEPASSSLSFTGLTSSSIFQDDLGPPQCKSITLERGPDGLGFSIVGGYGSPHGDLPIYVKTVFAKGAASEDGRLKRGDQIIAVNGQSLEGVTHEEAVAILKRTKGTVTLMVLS

LIMK2-1 = target: T1, LIMK2-1 (Homo sapiens, UniProt P53671); experiment: Holdup assay, LIMK2-1; assay type: binding
T1 sequence (P53671 152-239): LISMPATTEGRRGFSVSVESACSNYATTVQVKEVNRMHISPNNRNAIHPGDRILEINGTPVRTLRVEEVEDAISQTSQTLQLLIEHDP

IL16-3 = experiment: Holdup assay, IL16-3; assay type: binding, human
INADL-3 = experiment: Holdup assay, INADL-3; assay type: binding, human
DFNB31-3 = target: T2, DFNB31-3 (Homo sapiens, UniProt Q9P202); experiment: Holdup assay, DFNB31-3; assay type: binding
T2 sequence (Q9P202 1-907): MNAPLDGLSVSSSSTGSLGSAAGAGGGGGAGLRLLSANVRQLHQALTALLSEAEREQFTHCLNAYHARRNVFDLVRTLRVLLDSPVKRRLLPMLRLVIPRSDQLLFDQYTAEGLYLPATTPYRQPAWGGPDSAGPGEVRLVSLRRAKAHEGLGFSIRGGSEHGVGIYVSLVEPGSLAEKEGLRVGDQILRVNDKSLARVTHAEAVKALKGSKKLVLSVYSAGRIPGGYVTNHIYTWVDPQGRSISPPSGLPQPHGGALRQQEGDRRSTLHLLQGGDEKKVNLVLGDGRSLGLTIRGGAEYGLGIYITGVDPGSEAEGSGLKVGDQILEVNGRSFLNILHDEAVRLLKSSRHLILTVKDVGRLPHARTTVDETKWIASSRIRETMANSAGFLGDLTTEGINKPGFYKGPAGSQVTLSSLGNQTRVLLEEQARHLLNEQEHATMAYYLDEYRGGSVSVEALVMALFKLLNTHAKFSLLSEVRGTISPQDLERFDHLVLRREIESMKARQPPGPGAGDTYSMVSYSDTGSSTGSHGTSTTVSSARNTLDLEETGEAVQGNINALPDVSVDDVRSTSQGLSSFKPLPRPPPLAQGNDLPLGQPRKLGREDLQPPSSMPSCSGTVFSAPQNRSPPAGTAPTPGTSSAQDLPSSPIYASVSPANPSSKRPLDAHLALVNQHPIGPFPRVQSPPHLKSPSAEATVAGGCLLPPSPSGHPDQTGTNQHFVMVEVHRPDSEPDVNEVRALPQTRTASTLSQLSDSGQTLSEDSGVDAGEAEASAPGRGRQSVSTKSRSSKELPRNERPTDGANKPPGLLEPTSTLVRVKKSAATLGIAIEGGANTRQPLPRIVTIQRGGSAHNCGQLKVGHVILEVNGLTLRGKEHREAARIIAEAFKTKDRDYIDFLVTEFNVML

SNX27 PDZ 1 = target: T3, SNX27 PDZ 1 (Homo sapiens, UniProt Q96L92); experiment: Holdup assay, SNX27-1; assay type: binding
T3 construct: made in house; host or cells: E. coli
Method: The holdup assay was performed on a Tecan freedom Evo200 robot with 384-well plates in singlicate for the three 11-mer PTEN variants and the 13-mer PTEN peptide as described in [31, 32]. Briefly, prior to interaction assay, 2.5 μL of streptavidin resin was saturated in each well with 20 μL of biotinylated PBM peptides (42 μM) and then washed twice with an excess of free biotin, while the reference resin was incubated only with biotin. Right before the holdup experiment, the PDZ library was spiked with an internal standard of lysozyme. Then, the biotin- or PBM-saturated resin was incubated, each in a distinct well of a 384-well plate, with complete cell lysates diluted so that the concentration of the tag-PDZ present in the crude extract is adjusted at 4 μM. After a sufficient time to reach complex equilibrium (15 min.), a fast and mild filtration step is performed and the tag-PDZ concentrations were measured by capillary electrophoresis instrument (LabChip GXII, PerkinElmer, Massachusets, USA). Standard markers were used to convert migration time into molecular weight on the LabChip software and inappropriate molecular weight markers were corrected or excluded.
For filtered data, the BI was extracted with the following equation (Eq 1) that estimates the depleted fraction after superimposition of the sample and reference electropherograms: BI=Iref−Ilig/Iref (1) where Iref and Ilig are the intensities of the tag-PDZ peaks measured, for each PDZ domain/PBM peptide interaction pair, in the biotin reference and the PBM electropherograms, respectively.
BIs were transformed into dissociation constants (KD) using the following formula: KD=([PDZtot]−BI·[PDZtot])·([PBMtot]−BI·[PDZtot])/BI·[PDZtot] (2) where [PDZtot] and [PBMtot] correspond to the total concentrations of the PDZ domain (usually around 4 μM) and the PBM peptide used during the assay. Since the PBMtot concentration in the resin during the holdup assay parameter may differ from one peptide to another and remains unknown, it is impossible to directly convert BI values into KD constants. We systematically determined the KD constants for a subset of PDZ/PBM pairs by competitive FP. […] For each PBM, the average peptide concentration was calculated after outlier rejection based on the absolute distances from the median as compared to three times the standard deviation (3σ rule), with never more than 2 values rejected.

GRASP-1 = GRASP-1 (Homo sapiens, UniProt Q7Z6J2); experiment: Holdup assay, GRASP-1; assay type: binding
Sequence of GRASP-1 (Q7Z6J2 100-189): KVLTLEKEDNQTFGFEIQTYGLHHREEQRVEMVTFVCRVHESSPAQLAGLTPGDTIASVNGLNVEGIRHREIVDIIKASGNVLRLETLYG

LIMK1-1 = experiment: Holdup assay, LIMK1-1; assay type: binding, human
IL16-4 = experiment: Holdup assay, IL16-4; assay type: binding, human
ARHGEF11-1 = target: T4, ARHGEF11-1 (Homo sapiens, UniProt O15085); experiment: Holdup assay, ARHGEF11-1; assay type: binding
T4 sequence (O15085 47-126): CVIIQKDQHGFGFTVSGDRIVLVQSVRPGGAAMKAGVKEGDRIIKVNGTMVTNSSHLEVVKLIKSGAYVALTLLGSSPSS

DVL1-1 = experiment: Holdup assay, DVL1-1; assay type: binding, human
DLG2-1 = DLG2-1 (Homo sapiens, UniProt Q15700); experiment: Holdup assay, DLG2-1; assay type: binding; settings: DLG2-1
GRIP1-2 = experiment: Holdup assay, GRIP1-2; assay type: binding, human
LIN7A-1 = experiment: Holdup assay, LIN7A-1; assay type: binding, human

CC[C@H](C)[C@H](NC(=O)[C@H](CCC(N)=O)NC(=O)[C@@H](NC(=O)[C@H](Cc1c[nH]cn1)NC(=O)[C@H](CCC(N)=O)NC(=O)[C@H](CC(=O)O)NC(=O)[C@H](CCC(=O)O)NC(=O)[C@H](CC(=O)O)NC(=O)CCC(=O)NCCCOCCOCCOCCCNC(=O)CCCC[C@@H]1SC[C@@H]2NC(=O)N[C@@H]21)[C@@H](C)O)C(=O)N[C@H](C(=O)N[C@@H](CCCNC(=N)N)C(=O)N[C@H](C(=O)O)C(C)C)[C@@H](C)O [PTEN_KR] ({X1-Suc}-DEDQHTQITRV-OH)
BI (GRIP1-4): -0.042 | LogKD (GRIP1-4): 3.655 | BI (MPDZ-11): 0.02 | LogKD (MPDZ-11): 3.655 | BI (LIMK2-1): -0.042 | LogKD (LIMK2-1): 3.655 | BI (IL16-3): -0.005 | LogKD (IL16-3): 3.655 | BI (INADL-3): -0.042 | LogKD (INADL-3): 3.655 | BI (DFNB31-3): -0.014 | LogKD (DFNB31-3): 3.655 | Kd (SNX27 PDZ 1): 8.32 µM | BI (SNX27 PDZ 1; PDZ domain SNX27-1): 0.67 | Kd (GRASP-1): 16.8 µM | BI (GRASP-1; GRASP-1): 0.575 | BI (LIMK1-1): -0.08 | LogKD (LIMK1-1): 3.655 | BI (IL16-4): 0.002 | LogKD (IL16-4): 3.655 | BI (ARHGEF11-1): 0.18 | BI (DVL1-1): -0.056 | LogKD (DVL1-1): 3.655 | BI (DLG2-1): 0.191 | BI (GRIP1-2): -0.06 | LogKD (GRIP1-2): 3.655 | BI (LIN7A-1): -0.026 | LogKD (LIN7A-1): 3.655
